From publication PMC7824769, “Identification of Small Molecules Blocking the Pseudomonas aeruginosa Type III Secretion System Protein PcrV” (Biomolecules, 2021)
Read-outs that look alike come from different tables or passages of the source.

Assays:
[1] = system: J774 cells infected with P. aeruginosa strain PAK; assay: cells; format: cell-based, Pseudomonas aeruginosa; conditions: for Anti-virulence efficacy in the infection assay (in words): 25-200 µM; for viability at 25 µM / viability at 50 µM / viability at 100 µM / viability at 200 µM: Pseudomonas aeruginosa; for viability at 25 µM: J774, compound 25 µM; for viability at 50 µM: J774, compound 50 µM; for viability at 100 µM: J774, compound 100 µM; for viability at 200 µM: J774, compound 200 µM
Experimental: The cell viability assay was performed essentially as described before. J774 cells were seeded in 96-well micro-titer plates (Nunc), 100 µL/well, to a final number of 50,000 cells/well in Dulbecco’s modified Eagle’s medium (DMEM) with glutamax (Merck) supplemented with 10% fetal calf serum (FCS) and 3 µg/mL gentamicin and incubated for 16-18 h. Overnight cultures of the P. aeruginosa strains PAK and PAKpcrV [10] were grown in Luria Broth (LB) on a rotary shaker at 220 rpm at 37 °C. Prior to infection, the bacteria were diluted 1:10 in DMEM + glutamax and incubated for 1 h at 37 °C (shaking). The J774 cells were washed once with PBS, then 30 µL of DMEM with glutamax and 10% FCS supplemented with the potential binders at concentrations of 50, 100, 200, and 400 µM were added to the wells in triplicates. The infection was initiated by adding 30 µL of the diluted bacterial solutions (where the OD600 had been diluted to 0.0008) to each well to initiate infection. This infection results in a final bacterial concentration of OD600 = 0.0004 and a multiplicities of infection (MOI) of approximately 8, with final concentrations of the compounds at 25, 50, 100, and 200 µM in 60 µL of DMEM + glutamax and 5% FCS. In the primary screening, the compounds were run at one concentration (100 µM) in duplicates. As an infection control, the wild-type strain PAK with 1% DMSO was added, and as a positive control, PAKpcrV with 1% DMSO was added into four wells each. After 3 h and 30 min, 10 µL of UptiBlue Viable Cell Counting Kit (Interchime, France) was added to all wells. The infection was followed under the light microscope and the fluorescence (excitation 535 nm and emission 595 nm) was measured at 4, 5, and 6 h in a microplate reader (Synergy™ H4, Biotek). The results were calculated as percentage of living cells compared to uninfected control, where the uninfected control was set to 100% living cells and the infected control was set to 0% living cells. As a control, compounds were added to uninfected cells in a parallel experiment and viability was calculated as above to screen for cell toxicity. A compound was considered toxic if the viability was <80% of the uninfected control after 6 h of incubation and if a visual change of cell morphology was observed by microscopy. Z’ was calculated for each plate to ensure good quality throughout the screening. Only results from plates with a Z’ > 0.4 were counted. Standard deviation was calculated with Gaussian approximation when appropriate and shown as error bars in Figure 3C and Figure 4A.
The T3SS is important for P. aeruginosa infection of eukaryotic cells, and a T3SS activator mutant or a mutant lacking the T3SS tip protein PcrV are not able to infect eukaryotic cells. The macrophage cell line, J774, was infected with the wild-type P. aeruginosa strain PAK, and the potential PcrV binders were added to the wells at a final concentration of 100 µM to screen for inhibition of infection. The T3SS-mediated cytotoxic effect on the eukaryotic cells was measured by using a viability staining method (Uptiblue, Interchim), and the results were measured after 4, 5, and 6 h of infection. The pcrV-mutant (PAKpcrV), which is not able to infect macrophages due to deletion of the PcrV protein, was used as a control.

[2] = system: P. aeruginosa strain PAK; assay: Bacterial toxicity (growth) assay, OD600; format: cell-based, Pseudomonas aeruginosa; conditions: 200, 100, 50 and 25 µM; OD600 for 8 h
Experimental: Overnight culture of the P. aeruginosa strain PAK was diluted in LB (Luria Broth) to an OD600 of 0.2. The bacteria were added into microtiter plates, and 25, 50, 100, and 200 µM of the potential binders were added in triplicates to the bacteria with a final concentration of 1% DMSO. […] Wells with 1% DMSO without substance were used as positive controls.

[3] = biological target: PcrV (Pseudomonas aeruginosa, UniProt G3XD49); assay: 1H NMR relaxation-edited binding experiment; conditions: compound 100 µM, PcrV 10 µM
Experimental: A solution containing 100 µM of the small molecule was prepared from 20 mM stock solution of the tested compound in DMSO and diluted in PBS (pH 7.4) containing trimethylsilyl propanoic acid (TMSP) as an internal standard. This solution was then split into halves and used for preparation of the test and the reference samples as follows: the test sample was prepared by adding 24 µL of 0.211 mM PcrV protein stock solution, resulting in a final protein concentration of 10 µM, whereas the reference sample was prepared by adding the corresponding volume of PBS buffer only before being transferred to 5-mm NMR tubes. The relaxation-edited experiments shown in Figure 3D were recorded on Bruker 600 MHz, and data were acquired at 298 K. Data from 256 scans were accumulated, and a Carr-Purcell-Meiboom-Gill (cpmg) spin-lock of 200 ms was used. Excitation sculpture was applied for water suppression.
To confirm the binding data obtained from the SPR, a secondary qualitative label-free binding experiment based on ^1H-NMR was performed.

[4] = uninfected control = 100%, infected control = 0%, read-out: Viability Assay (% of Uninfected Control) 25 µM
[5] = uninfected control = 100%, infected control = 0%, read-out: Viability Assay (% of Uninfected Control) 50 µM
[6] = uninfected control = 100%, infected control = 0%, read-out: Viability Assay (% of Uninfected Control) 100 µM
[7] = uninfected control = 100%, infected control = 0%

Chain of PcrV (G3XD49 entry or part of it): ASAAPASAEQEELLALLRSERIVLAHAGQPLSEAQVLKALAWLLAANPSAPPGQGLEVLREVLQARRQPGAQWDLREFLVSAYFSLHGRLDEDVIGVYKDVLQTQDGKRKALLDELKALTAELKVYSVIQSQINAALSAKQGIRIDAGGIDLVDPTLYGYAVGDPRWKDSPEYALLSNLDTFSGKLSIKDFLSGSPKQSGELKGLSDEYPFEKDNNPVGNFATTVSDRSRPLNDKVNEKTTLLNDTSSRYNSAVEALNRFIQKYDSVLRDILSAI

SMILES | Anti-virulence efficacy in the infection assay (in words) [1] | viability at 25 µM [1, 4] [%] | viability at 50 µM [1, 5] [%] | viability at 100 µM [1, 6] [%] | viability at 200 µM [1, 7] [%] | Effect on bacterial growth [2] | viability at 25 µM ([1]; one representative experiment, read-out: Macrophage Viability, wt+25 µM (Figure 3C)) [%] | viability at 50 µM ([1]; one representative experiment, read-out: Macrophage Viability, wt+50 µM (Figure 3C)) [%] | viability at 100 µM ([1]; one representative experiment, read-out: Macrophage Viability, wt+100 µM (Figure 3C)) [%] | 1H NMR binding to PcrV (qualitative) [3]
Cc1c(Br)ccc(OC[C@@H]2C[C@@H]2C(=O)O)c1C (relative stereo) [Compound 33] | as efficacious as or better than H1 | 24 | 24 | 38 | ≤ 38 | without affecting bacterial growth | – | – | – | –
Cc1c(Br)ccc(OCCCC(=O)O)c1C [Compound H1] | – | 12 | 20 | 27 | 28 | – | -4 | 19 | 42 | signal reduction
Cc1c(Br)ccc(OC[C@@H]2C[C@H]2C(=O)O)c1C (relative stereo) [Compound 32] | as efficacious as or better than H1 | 22 | 21 | 33 | ≤ 38 | without affecting bacterial growth | – | – | – | –
